Holding throughout (type): biochemical
The target in test [1] is T1, human CSNK1A1 (Homo sapiens (Human), UniProt P48729). Briefly: CSNK1A1 Assay 2 (ADP-Glo, 1 μM ATP). The conditions noted are these: substrate biotin-Ahx-KRRRAL-pS-VASLPGL, read-out: CSNK1A1 Assay 2 IC50 [mol/l] (median). The essentials: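 Full-length human CSNK1A1 as an N-terminal GST fusion (baculovirus/insect cells) with biotinylated peptide substrate biotin-Ahx-KRRRAL-pS-VASLPGL and 1 μM ATP, in HEPES pH 7.5 buffer. Compounds were pre-incubated with enzyme (~0.0375 ng/μL) for 15 min at 22 °C. Generated ADP was read by ADP-Glo luminescence as the activity measure.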

In test [2] the target is T1, human CSNK1A1. Description: CSNK1A1 High ATP Assay (ADP-Glo, 1 mM ATP). The settings on record: read-out: CSNK1A1 high ATP assay IC50 [mol/l] (median). The gist of the method:
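GST-tagged full-length human CSNK1A1 from baculovirus-infected insect cells (typically about 0.4 ng/μL), pre-incubated with compound 15 min at 22 °C. Reaction with biotinylated peptide biotin-Ahx-KRRRAL-pS-VASLPGL at 1 mM ATP. ADP formed read by ADP-Glo luminescence.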

Another test has as its target human CSNK1D (Homo sapiens (Human), UniProt P48730). Description: CSNK1D Assay (ADP-Glo, 1 μM ATP). The conditions noted are these: read-out: CSNK1D IC50 [mol/l] (median). The essentials: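 GST-tagged full-length human CSNK1D from baculovirus-infected insect cells, typically ~0.5 ng/μL, with biotinylated peptide substrate and 1 μM ATP in HEPES pH 7.5 buffer. Compound is preincubated with enzyme 15 min at 22 °C. ADP formed is quantified by ADP-Glo luminescence.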
(In general: ADP-Glo turns the ADP formed in a reaction into a luminescent signal.)

For test [3], the target named is wild-type Epidermal Growth Factor Receptor (EGFR) (Homo sapiens (Human), UniProt P00533). Description: WT-EGFR Kinase Assay (TR-FRET, 2 mM ATP).
[4] abbreviates: EGFR Wildtyp- 2 mM ATP IC50 [mol/l] (median).
Setting [5] is: read-out: EGFR Wildtyp- 2 mM ATP IC50 [mol/l] (median).

The structures appear in SMILES notation. Where two headings read alike, the source gives them in different places.

Chain of wild-type Epidermal Growth Factor Receptor (EGFR) (P00533 669-1210): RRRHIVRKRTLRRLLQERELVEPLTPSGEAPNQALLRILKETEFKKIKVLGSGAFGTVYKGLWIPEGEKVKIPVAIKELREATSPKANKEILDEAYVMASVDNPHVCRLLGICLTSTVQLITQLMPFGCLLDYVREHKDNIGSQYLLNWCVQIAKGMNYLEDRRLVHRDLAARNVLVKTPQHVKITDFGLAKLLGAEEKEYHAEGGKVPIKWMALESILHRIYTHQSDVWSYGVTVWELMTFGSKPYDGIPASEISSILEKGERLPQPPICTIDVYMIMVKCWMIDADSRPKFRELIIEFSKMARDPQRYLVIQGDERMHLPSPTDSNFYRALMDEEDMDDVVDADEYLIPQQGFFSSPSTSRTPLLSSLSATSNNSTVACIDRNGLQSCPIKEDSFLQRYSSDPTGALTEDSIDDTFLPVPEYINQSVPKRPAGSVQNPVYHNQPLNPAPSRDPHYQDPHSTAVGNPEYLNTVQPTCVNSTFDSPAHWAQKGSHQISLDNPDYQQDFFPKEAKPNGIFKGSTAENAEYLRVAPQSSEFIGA
T1 sequence (P48729 whole entry, the tested form may be a part): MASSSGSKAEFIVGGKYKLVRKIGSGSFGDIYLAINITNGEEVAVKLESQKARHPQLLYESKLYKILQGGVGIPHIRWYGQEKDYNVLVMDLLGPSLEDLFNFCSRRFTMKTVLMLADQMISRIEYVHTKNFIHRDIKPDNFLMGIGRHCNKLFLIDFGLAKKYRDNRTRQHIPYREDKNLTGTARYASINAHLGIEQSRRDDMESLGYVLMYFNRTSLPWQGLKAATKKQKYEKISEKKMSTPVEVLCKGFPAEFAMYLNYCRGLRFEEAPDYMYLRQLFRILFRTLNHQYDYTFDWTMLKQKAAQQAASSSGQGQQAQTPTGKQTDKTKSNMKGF
Chain of human CSNK1D (P48730 whole entry): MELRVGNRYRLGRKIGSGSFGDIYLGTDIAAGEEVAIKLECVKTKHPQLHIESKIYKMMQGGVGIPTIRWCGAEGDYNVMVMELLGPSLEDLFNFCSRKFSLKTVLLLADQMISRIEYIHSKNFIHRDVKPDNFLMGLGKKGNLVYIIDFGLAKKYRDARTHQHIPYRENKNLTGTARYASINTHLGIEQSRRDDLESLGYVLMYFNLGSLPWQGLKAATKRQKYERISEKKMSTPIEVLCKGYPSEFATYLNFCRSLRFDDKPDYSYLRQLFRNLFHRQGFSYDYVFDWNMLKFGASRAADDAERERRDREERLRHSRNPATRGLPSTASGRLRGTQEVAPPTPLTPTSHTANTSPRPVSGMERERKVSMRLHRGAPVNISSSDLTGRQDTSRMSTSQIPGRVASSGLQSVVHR

As for `CC1Cc2[nH]c(-c3ccnc(NC(=O)Cc4ccncc4)c3)c(Nc3ccccc3)c2C(=O)N1C` (single isomer, unassigned; (+)) [Example 98, (+)-N-{4-[(6R*)-3-anilino-5,6-dimethyl-4-oxo-4,5,6,7-tetrahydro-1H-pyrrolo[3,2-c]pyridin-2-yl]pyridin-2-yl}-2-(pyridin-4-yl)acetamide], the IC50 on human CSNK1A1 [1] worked out at 4.16 nM; at human CSNK1A1 [2], 149 nM; at human CSNK1D, 6.13 nM; in test [3] (setting [4]), 4340 nM.

In the case of `CC1Cc2[nH]c(-c3ccnc(NC(=O)Cc4ccc(F)cc4)c3)c(Nc3ccccc3F)c2C(=O)N1C` (single isomer, unassigned; (+)) [Example 101, (+)-N-{4-[3-(2-fluoroanilino)-5,6-dimethyl-4-oxo-4,5,6,7-tetrahydro-1H-pyrrolo[3,2-c]pyridin-2-yl]pyridin-2-yl}-2-(4-fluorophenyl)acetamide], the IC50 on human CSNK1A1 [1] is 3.74 nM; at human CSNK1A1 [2], 258 nM; on human CSNK1D, 7.42 nM; in test [3] (setting [4]) it was greater than 20000 nM.

For the compound `CC1Cc2[nH]c(-c3ccnc(NC(=O)C(CC(F)F)c4ccc(F)cc4)c3)c(Nc3ccccc3F)c2C(=O)N1C` (single isomer, unassigned; (+)) [Example 103, (+)-(2RS)-4,4-difluoro-N-{4-[(6R*)-3-(2-fluoroanilino)-5,6-dimethyl-4-oxo-4,5,6,7-tetrahydro-1H-pyrrolo[3,2-c]pyridin-2-yl]pyridin-2-yl}-2-(4-fluorophenyl)butanamide], the IC50 at human CSNK1A1 [1] is 12.8 nM; on human CSNK1A1 [2], 268 nM; on human CSNK1D it was 17.3 nM; in test [3] (setting [4]), greater than 20000 nM.

On to `CC1Cc2[nH]c(-c3ccnc(NC(=O)C(CC(F)F)c4ccc(F)cc4)c3)c(Nc3ccccc3F)c2C(=O)N1C` (single isomer, unassigned; (+)) [Example 105, (+)-4,4-difluoro-N-{4-[3-(2-fluoroanilino)-5,6-dimethyl-4-oxo-4,5,6,7-tetrahydro-1H-pyrrolo[3,2-c]pyridin-2-yl]pyridin-2-yl}-2-(4-fluorophenyl)butanamide], for which the IC50 is 4.06 nM on human CSNK1A1 [1], 94.5 nM at human CSNK1A1 [2], 5.45 nM at human CSNK1D and greater than 20000 nM in test [3] (setting [5]).

Consider `CC1Cc2[nH]c(-c3ccnc(NC(=O)C(CC(F)F)c4ccc(F)cc4)c3)c(Nc3ccccc3F)c2C(=O)N1C` (single isomer, unassigned; (+)) [Example 108, (+)-4,4-difluoro-N-{4-[3-(2-fluoroanilino)-5,6-dimethyl-4-oxo-4,5,6,7-tetrahydro-1H-pyrrolo[3,2-c]pyridin-2-yl]pyridin-2-yl}-2-(4-fluorophenyl)butanamide], for which the IC50 is 3.27 nM on human CSNK1A1 [1], 8.33 nM at human CSNK1A1 [2], 4.62 nM at human CSNK1D and greater than 20000 nM in test [3] (setting [5]).

For `CC1(C)Cc2[nH]c(-c3ccnc(NC(=O)C(CC(F)F)c4ccc(F)cc4)c3)c(Nc3cccc(F)c3Cl)c2C(=O)N1` (single isomer, unassigned; (+)) [Example 111, (+)-N-{4-[3-(2-chloro-3-fluoroanilino)-6,6-dimethyl-4-oxo-4,5,6,7-tetrahydro-1H-pyrrolo[3,2-c]pyridin-2-yl]pyridin-2-yl}-4,4-difluoro-2-(4-fluorophenyl)butanamide], the IC50 is 10.9 nM on human CSNK1A1 [1], 135 nM at human CSNK1A1 [2], 10.2 nM on human CSNK1D and 1140 nM in test [3] (setting [4]).

Turning to `CC(C(=O)Nc1cc(-c2[nH]c3c(c2Nc2ccccc2F)C(=O)N(C)CC3)ccn1)c1ccc(F)cc1` (single isomer, unassigned; (-)) [Example 41, (−)-N-{4-[3-(2-fluoroanilino)-5-methyl-4-oxo-4,5,6,7-tetrahydro-1H-pyrrolo[3,2-c]pyridin-2-yl]pyridin-2-yl}-2-(4-fluorophenyl)propanamide], the IC50 on human CSNK1A1 [1] is 22.6 nM; on human CSNK1A1 [2], 3530 nM; at human CSNK1D, 31.2 nM; in test [3] (setting [4]), greater than 20000 nM.

Regarding `O=C1NC2(CCC2)Cc2[nH]c(-c3ccnc(NC(=O)C(CC(F)F)c4ccc(F)cc4)c3)c(Nc3ccccc3)c21` (single isomer, unassigned; (-)) [Example 56, (−)-N-[4-(3′-anilino-4′-oxo-1′,4′,5′,7′-tetrahydrospiro[cyclobutane-1,6′-pyrrolo[3,2-c]pyridin]-2′-yl)pyridin-2-yl]-4,4-difluoro-2-(4-fluorophenyl)butanamide], the IC50 came to 19.2 nM at human CSNK1A1 [1], 1080 nM at human CSNK1A1 [2], 27.9 nM at human CSNK1D and 857 nM in test [3] (setting [4]).

As for `CN(C)CCCC(C(=O)Nc1cc(-c2[nH]c3c(c2Nc2ccccc2)C(=O)N(C)CC3)ccn1)c1ccccc1` (single isomer, unassigned; (-)) [Example 59, (−)-N-[4-(3-anilino-5-methyl-4-oxo-4,5,6,7-tetrahydro-1H-pyrrolo[3,2-c]pyridin-2-yl)pyridin-2-yl]-5-(dimethylamino)-2-phenylpentanamide], the IC50 turned out to be 94.3 nM on human CSNK1A1 [1], 7300 nM at human CSNK1A1 [2], 86.2 nM at human CSNK1D and 16300 nM in test [3] (setting [4]).

For the compound `CN1CCc2[nH]c(-c3ccnc(NC(=O)C(CC(F)F)c4ccc(F)cc4)c3)c(Nc3ccccc3)c2C1=O` (single isomer, unassigned; (-)) [Example 62, (−)-N-[4-(3-anilino-5-methyl-4-oxo-4,5,6,7-tetrahydro-1H-pyrrolo[3,2-c]pyridin-2-yl)pyridin-2-yl]-4,4-difluoro-2-(4-fluorophenyl)butanamide], the IC50 at human CSNK1A1 [1] was 21 nM; at human CSNK1A1 [2], 1500 nM; on human CSNK1D, 29.7 nM; in test [3] (setting [4]), greater than 20000 nM.

On to `CCC(C(=O)Nc1cc(-c2[nH]c3c(c2Nc2ccccc2)C(=O)N(C)CC3)ccn1)c1ccc(F)cc1` (single isomer, unassigned; (-)) [Example 76, (−)-N-[4-(3-anilino-5-methyl-4-oxo-4,5,6,7-tetrahydro-1H-pyrrolo[3,2-c]pyridin-2-yl)pyridin-2-yl]-2-(4-fluorophenyl)butanamide], for which the IC50 on human CSNK1A1 [1] was 14.4 nM; on human CSNK1A1 [2], 506 nM; on human CSNK1D, 17.5 nM; in test [3] (setting [4]), greater than 20000 nM.

For the compound `CC(C(=O)Nc1cc(-c2[nH]c3c(c2Nc2ccccc2)C(=O)N(C)CC3)ccn1)c1ccc(Cl)cc1` (single isomer, unassigned; (-)) [Example 80, (−)-N-[4-(3-anilino-5-methyl-4-oxo-4,5,6,7-tetrahydro-1H-pyrrolo[3,2-c]pyridin-2-yl)pyridin-2-yl]-2-(4-chlorophenyl)propanamide], the IC50 on human CSNK1A1 [1] is 24.1 nM; at human CSNK1A1 [2] it was 2840 nM; on human CSNK1D, 30.3 nM; in test [3] (setting [4]), greater than 20000 nM.

Turning to `CC1Cc2[nH]c(-c3ccnc(NC(=O)Cc4ccc(F)cc4)c3)c(Nc3ccccc3)c2C(=O)N1C` (single isomer, unassigned; (-)) [Example 90, (−)-N-{4-[3-anilino-5,6-dimethyl-4-oxo-4,5,6,7-tetrahydro-1H-pyrrolo[3,2-c]pyridin-2-yl]pyridin-2-yl}-2-(4-fluorophenyl)acetamide], the IC50 on human CSNK1A1 [1] was determined as 1.43 nM; on human CSNK1A1 [2] it was 62.4 nM; at human CSNK1D it was 3.79 nM; in test [3] (setting [4]), 561 nM.

For the origin of these results see patent US12227501B2, “3-amino-2-[2-(acylamino)pyridin-4-yl]-1,5,6,7-tetrahydro-4h-pyrrolo[3,2-c]pyridin-4-one as CSNK1 inhibitors” (Bayer Aktiengesellschaft, priority 2019, dated 2025).
